From patent US4749710A, “Immunosuppressive agents” (priority 1985, dated 1988)
Where two headings read alike, the source gives them in different places.

Columns and labels:
Format in all cases: cell-based
[1] = Viability / viable cell recovery of cultured murine cells (trypan blue dye exclusion); settings: mouse, trypan blue exclusion
Protocol: (§1) Murine cytotoxic T-lymphocytes were generated in mixed leukocyte cultures by known methods. Specifically, single cell suspensions were prepared from spleens by gentle disruption in balanced salt solution (Hanks' balanced salt solution supplemented to 10%, v/v, with fetal bovine serum). After sedimentation on ice to remove particulate debris, cell suspensions were centrifuged at 400xg and were resuspended in fresh balanced salt solution. Cells to be used as stimulator cells were precluded from proliferating or generating cytotoxic T-lymphocytes by exposure to 1000 rads of gamma irradiation using a ^137 cesium source. […] Unless otherwise indicated, mixed leukocyte cultures were incubated at 37° C. for 6 days in a humidified atmosphere of 5% CO2 in air. The murine cytotoxic T-lymphocyte assay was conducted as follows. […] Cell pellets were resuspended in tissue culture medium and viable cells were enumerated by microscopy after exposure to trypan blue. Percent viability was calculated according to the formula: [formula] During the mixed leukocyte culture phase of the murine tests, three each of medium control and vehicle control cultures were included; each being assayed separately for cell viability and CTL activity. Unless otherwise indicated, single cultures were used to test for the effect of a particular concentration of any Vitamin D derivative. Moreover, cell viability was generally assessed only from control cultures; the resultant mean values being used to prepare desired viable effector cell concentrations from all cultures. The results for control cultures are expressed as the mean from replicate mixed leukocyte cultures±standard deviation thus establishing the between-culture variability inherent to any particular experiment. That changes in CTL activity were compound-induced was evidenced by dose-dependent changes in CTL activity measured from single cultures which exceeded the variability of the test system. […] The data shown in Table II below address this point. […] | ^b The viability of cells from each culture was determined by trypan

cultured murine cells = test: as above; settings: immunosuppressive concentrations
Protocol: as §1

[2] = system: murine cytotoxic T-lymphocyte responses; test: cells; settings: for CTL activity (% specific ^51 Cr release): 90:1 effector to target
Source text: Immunosuppressive Activity of Vitamin D compounds on cytotoxic T lymphocyte Responses-General Test Description
Cytotoxic thymus-derived lymphocytes (CTL) constitute an important aspect of immune function and, as a result, play a key role in the rejection of grafted cells, tissues and organs. It is, therefore, essential to suppress CTL generation in a clinical situation in which CTL function is antithetical to the desired outcome as, for example, in transplantation. Cytotoxic T-lymphocytes have been studied for several years by many investigators and methods to evaluate CTL responses in vitro are well established.
As described below, CTL responses as affected by Vitamin D derivatives, were studied in vitro using cells from lab animals and human volunteers. Cytotoxic T-lymphocytes were generated from responder lymphoid cells in tissue culture medium during an incubation period of 6 days by exposure to foreign stimulator cells, i.e. from a genetically disparate source. A portion of the resultant effector cells were CTL capable of killing fresh cells related to the stimulator cells employed in the 6 day culture. To detect killing of cells by CTL, fresh target cells were incubated in excess ^51 chromium (as sodium chromate) until they were extensively labelled. Since target cells will retain the internalized radioisotope as long as they are viable but release the label when they are killed, CTL activity was assessed by quantitating the chromium released from target cells after a 4 or 18 hour incubation with CTL. Immunosuppression produced by Vitamin D derivatives was gauged as the ability to inhibit CTL responses during the initial incubation period relative to control cultures to which no Vitamin D derivative was added.
Female BALB/c By and C57BL/6 mice were obtained from Jackson Laboratories and were used between 8 and 10 weeks of age. Mice were given food and water ad libitum and were kept in a 12 hour light and 12 hour dark cycle.
For murine cultures, minimal essential medium with Hank's salts was supplemented to 1 millimolar with sodium pyruvate, to 0.1 millimolar with nonessential amino acids, to 2 millimolar with 1-glutamine, to 10% (v/v) with heat-inactivated fetal bovine serum, to 50 micrograms per ml with gentamicin, and to 1000 milligrams per liter with sodium bicarbonate and was used as tissue culture medium.
Stock solutions of Vitamin D derivatives were made in argon-saturated ethanol at a final concentration of 1×10^-2 molar, were covered with argon before sealing and were stored at -20° C. in the dark. Reduced lighting conditions were always employed when working with compounds. Compounds were diluted in tissue culture medium to 1×10^-4 molar and all subsequent dilutions were done in tissue culture medium containing 1% v/v ethanol. The final dilution into culture vessels was 1:10 thus keeping the vehicle concentration constant at 0.1% while varying the concentration of compound as tabulated in the results. For purposes of control, mixed leukocyte cultures were incubated in medium only (medium control) or in medium containing a final concentration of 0.1% ethanol (vehicle control).
Murine cytotoxic T-lymphocytes were generated in mixed leukocyte cultures by known methods. Specifically, single cell suspensions were prepared from spleens by gentle disruption in balanced salt solution (Hanks' balanced salt solution supplemented to 10%, v/v, with fetal bovine serum). After sedimentation on ice to remove particulate debris, cell suspensions were centrifuged at 400xg and were resuspended in fresh balanced salt solution. Cells to be used as stimulator cells were precluded from proliferating or generating cytotoxic T-lymphocytes by exposure to 1000 rads of gamma irradiation using a ^137 cesium source. […]

## C=C1/C(=C\C=C2/CCC[C@]3(C)[C@@H]([C@H](C)/C=C/[C@H](C)C(C)(C)O)CC[C@@H]23)C[C@@H](O)C[C@@H]1O [1α,25-(OH)2 --D2, 1α,25-Dihydroxyergocalciferol]
[1]
  viability at 0.0001 µM: 57%
  viability at 0.001 µM: 58%
  viability at 0.01 µM: 57%
  viability at 0.1 µM: 57%
  viability at 1 µM: 57%
Cultured murine cells
  toxicity to cultured murine cells (in words): not toxic to cultured murine cells
[2]
  suppression of murine cytotoxic T-lymphocyte responses (in words): suppress murine cytotoxic T-lymphocyte responses
[2]; Mus musculus, T-lymphocyte, Table I, 1 × 10^-5 molar, vs vehicle control, read-out: Inhibition of CTL activity (%)
  inhibition at 10 µM: 91%
[2]; Mus musculus, T-lymphocyte, Table I, 1 × 10^-6 molar, vs vehicle control, read-out: Inhibition of CTL activity (%)
  inhibition at 1 µM: 63%
[2]; Mus musculus, T-lymphocyte, Table I, 1 × 10^-7 molar, vs vehicle control, read-out: Inhibition of CTL activity (%)
  inhibition at 0.1 µM: 48%
[2]; Mus musculus, T-lymphocyte, Table I, 1 × 10^-8 molar, vs vehicle control, read-out: Inhibition of CTL activity (%)
  inhibition at 0.01 µM: 40%
[2]; Mus musculus, T-lymphocyte, Table I, 1 × 10^-9 molar, vs vehicle control, read-out: Inhibition of CTL activity (%)
  inhibition at 0.001 µM: 20%
[2]; Mus musculus, T-lymphocyte, Table I, 1 × 10^-10 molar, vs vehicle control, read-out: Inhibition of CTL activity (%)
  inhibition at 0.0001 µM: 3%
[2]; Mus musculus, T-lymphocyte, Table II, 1 × 10^-6 molar, vs vehicle, read-out: Inhibition of CTL activity (%)
  inhibition at 1 µM: 56%
[2]; Mus musculus, T-lymphocyte, Table II, 1 × 10^-7 molar, vs vehicle, read-out: Inhibition of CTL activity (%)
  inhibition at 0.1 µM: 56%
[2]; Mus musculus, T-lymphocyte, Table II, 1 × 10^-8 molar, vs vehicle, read-out: Inhibition of CTL activity (%)
  inhibition at 0.01 µM: 37%
[2]; Mus musculus, T-lymphocyte, Table II, 1 × 10^-9 molar, vs vehicle, read-out: Inhibition of CTL activity (%)
  inhibition at 0.001 µM: 20%
[2]; Mus musculus, T-lymphocyte, Table II, 1 × 10^-10 molar, vs vehicle, read-out: Inhibition of CTL activity (%)
  inhibition at 0.0001 µM: 20%
[2]; Table I, 1 × 10^-5 molar
  CTL activity (% specific ^51 Cr release): 5 % specific ^51 Cr release
[2]; Table I, 1 × 10^-6 molar
  CTL activity (% specific ^51 Cr release): 20 % specific ^51 Cr release
[2]; Table I, 1 × 10^-7 molar
  CTL activity (% specific ^51 Cr release): 28 % specific ^51 Cr release
[2]; Table I, 1 × 10^-8 molar
  CTL activity (% specific ^51 Cr release): 32 % specific ^51 Cr release
[2]; Table I, 1 × 10^-9 molar
  CTL activity (% specific ^51 Cr release): 43 % specific ^51 Cr release
[2]; Table I, 1 × 10^-10 molar
  CTL activity (% specific ^51 Cr release): 52 % specific ^51 Cr release
[2]; Table II, 1 × 10^-6 molar
  CTL activity (% specific ^51 Cr release): 21 % specific ^51 Cr release
[2]; Table II, 1 × 10^-7 molar
  CTL activity (% specific ^51 Cr release): 21 % specific ^51 Cr release
[2]; Table II, 1 × 10^-8 molar
  CTL activity (% specific ^51 Cr release): 30 % specific ^51 Cr release
[2]; Table II, 1 × 10^-9 molar
  CTL activity (% specific ^51 Cr release): 38 % specific ^51 Cr release
[2]; Table II, 1 × 10^-10 molar
  CTL activity (% specific ^51 Cr release): 38 % specific ^51 Cr release
